Columns and labels:
[1] = Pharmacokinetic evaluation in male CD-1 mice (IV 0.5 mg/kg, PO 2 mg/kg), plasma LC/MS/MS; assay type: in vivo
Method: Assay purpose: The pharmacokinetic properties of the compounds of the present disclosure were studied in mice.
Each assay compound was mixed with DMAC respectively, and vortexed for 2 minutes. The solution of the assay compound in DMAC was mixed and vortexed for 2 minutes to prepare a clear solution of 10 mg/mL. 0.0600 mL of 10 mg/mL solution was added to 0.300 mL of Solutol, and the mixture was vortexed for 2 minutes. Then 2.400 mL of normal saline was added, and the mixture was vortexed for 2 minutes to obtain a clear solution of 0.2 mg/mL, which was used for administration in PO group. 0.500 mL of the solution for administration in PO group was vortexed for 2 minutes, and 0.0500 mL of DMAC was added. The mixture was vortexed for 2 minutes, and then 0.0500 mL of solutol was added. The mixture was vortexed for 2 minutes, and finally 0.400 mL of normal saline was added. The mixture was vortexed for two minutes to give a clear solution of 0.1 mg/mL, which was filtered through a microporous membrane to give a solution for administration in injection (IV) group.
Four male CD-1 mice were divided into two groups. The animals in the first group were administered intravenously once at a dose of 0.5 mg/kg, wherein the vehicle was 10% DMAC/10% Solutol/80% normal saline, and the administration volume was 5 mL/kg. The animals in the second group were administered orally 2 mg/kg of the assay compound by oral gavage, wherein the oral vehicle was 10% DMAC/10% Solutol/80% normal saline, and the oral volume was 10 mL/kg. Whole blood was collected at 0.033 (IV injection only), 0.083, 0.25, 0.5, 1, 2, 4 and 12 hours post-dose. The whole blood was centrifuged at 3200 g at 2-8 °C for 10 min to obtain plasma. The concentration of the assay compound in plasma was determined by LC/MS/MS method, and the pharmacokinetic parameters were calculated by Phoenix WinNonlin software.
The parameters have the following meanings: IV: intravenous injection; PO: oral administration; C0: initial plasma concentration; Cmax: maximum drug concentration in the systemic circulation; Tmax: time required to reach Cmax; T1/2: half-life; Vdss: apparent volume of distribution; Cl: clearance rate; AUC0-last: area under the plasma drug concentration-time curve.

[2] = Hygroscopicity study by dynamic vapor sorption (DVS); assay type: physicochemical; conditions: 25 °C/80% RH
Method: Instrument model: SMS DVS intrinsic plus dynamic vapor sorption instrument. Detailed DVS parameters are as follows: • Temperature: 25 °C; • Protective gas and flow rate: nitrogen, 200 mL/min; • dm/dt=0.002%/min; • RH (%) test gradient: 10% RH; • Minimum dm/dt balance time: 10 min; • Maximum balance time: 180 min; • Range of RH (%) test gradient: 0% to 95%.
The classification of hygroscopicity evaluation is as follows: • Absorbing enough water and forming a liquid: deliquescence; ΔW %≥15%: very hygroscopic; 15%>ΔW %≥2%: hygroscopic; 2%>ΔW %≥0.2%: slightly hygroscopic; ΔW %<0.2%: Not or almost not hygroscopic. ΔW % represents the weight increase of a test sample by moisture absorption at 25±1 °C and 80±2% RH.
The test was performed using SMS DVS intrinsic plus dynamic vapor sorption instrument.

[3] = Solid stability testing of the crystal form B (influencing factors: high temperature, high humidity, light; accelerated 40 °C/75% RH; long-term 25 °C/60% RH); assay type: physicochemical
Excerpt: Influencing factor testing: unless otherwise specified, each sample was placed in an open weighing bottle, which was placed in the corresponding storage container to investigate the stability at the time points of 5 and 10 days. The photostability testing complied with the requirements of ICH Q1B: the illuminated sample was exposed to visible light and ultraviolet light; storage conditions: the sample was illuminated at 5000±500 lux (visible light) and 90 μw/cm^2 (UV) for 5 days and 10 days. The total illumination received by the sample after 10 days was not less than 1.2×10^6 Lux·h, and the near-ultraviolet energy was not less than 200 w·h/m^2. The illuminated sample was placed in a clean weighing bottle, and spread out into a single layer without being covered by anything. The weighing bottle was uncovered and placed in an illumination box for illumination. The control sample was packaged in the same way as the illuminated sample, but the weighing bottle was covered with aluminum film. Long-term and accelerated testing: each sample was placed in a double-layer LDPE bag, respectively, and each layer of the LDPE bag was sealed with a buckle. Then, the sample was placed in an aluminum foil bag, which was heat-sealed. The sample was placed for 1, 2 and 3 months in the accelerated testing, and placed for 3 months under the long-term condition. XRPD analysis was performed on all the stability samples to test the changes in the crystal forms.
25 mg of a sample was taken, weighed accurately, and placed in a 10 mL volumetric flask. 6 mL of acetonitrile was added and the sample was dissolved by ultrasound. The mixture was cooled to room temperature, and water was added to the scale marker. The mixture was shaken well, and the sample was dissolved to give a solution with a concentration of approximately 2.5 mg/mL. The liquid phase was used for sample injection analysis. The test results were compared with the initial test results on day 0.

[4] = as above; assay type: physicochemical; remark: listed apart in the source
[5] = High humidity (25 °C, 92.5% relative humidity, uncovered), 10 days
[6] = High temperature (60 °C, uncovered), 10 days
[7] = Long term (25 °C, 60% relative humidity, uncovered), 3 months
[8] = Visible light + UV (ICH conditions), total illumination of visible light reaching 1200000 Lux·h, UV reaching 200 w·h/m^2
[9] = Accelerated (40 °C, 75% relative humidity, uncovered), 1 month
[10] = Accelerated (40 °C, 75% relative humidity, uncovered), 2 months
[11] = Accelerated (40 °C, 75% relative humidity, uncovered), 3 months
[12] = Light-shielding control group, placed with visible light + UV light, wrapped with tin foil

Which AUC0-last ([1]; IV (0.5 mg/kg)) does the source give for O=C(O)c1scc2[nH]c(=O)n(-c3cc4c(cc3F)OCCCOc3ccc(F)c(F)c3CO4)c(=O)c12 [Compound of formula (I)] here?
Its AUC0-last is 48.307 µM·h.

What about the “Cl (clearance rate)” value ([1]; IV (0.5 mg/kg)) of the same molecule?
The value was 0.332 mL/min/kg.

And the T1/2 ([1]; IV (0.5 mg/kg))?
The T1/2 was 5.66 h.

What about the “Vdss (apparent volume of distribution)” value ([1]; IV (0.5 mg/kg)) of the same molecule?
The value was 0.159 L/kg.

What about the C0 ([1]; IV (0.5 mg/kg), read-out: C0 (initial plasma concentration)) of the same molecule?
The C0 was 13.5 µM.

And the AUC0-last ([1]; PO (2 mg/kg))?
Its AUC0-last is 142.824 µM·h.

And the Bioavailability ([1]; PO (2 mg/kg))?
The Bioavailability was 95.3%.

And the Cmax ([1]; PO (2 mg/kg))?
Its Cmax is 25.8 µM.

What about the T1/2 ([1]; PO (2 mg/kg)) of the same molecule?
The T1/2 was 5.03 h.

And the Tmax ([1]; PO (2 mg/kg))?
The Tmax was 0.500 h.

Which results are given for O=C(O)c1scc2[nH]c(=O)n(-c3cc4c(cc3F)OCCCOc3ccc(F)c(F)c3CO4)c(=O)c12?
hygroscopicity [2]: slightly hygroscopic (2%>ΔW %≥0.2%); ΔW % ([2]; DVS): 0.535%; Purity (HPLC) ([3]; 0 day (initial)): 99.4%; Crystal form [3, 5]: form B; Purity (HPLC) [3, 5]: 99.4%; Crystal form [3, 6]: form B; Purity (HPLC) [3, 6]: 99.4%; Purity (HPLC) [3, 7]: 99.4%; Crystal form [3, 8]: form B; Purity (HPLC) [3, 8]: 99.4%; change of purity and crystalline form ([3]; all stability conditions (high temperature, high humidity, illumination, long-term and accelerated)): did not change significantly; Crystal form ([4]; 0 day (initial)): form B; Crystal form [4, 9]: form B; Purity (HPLC) [4, 9]: 99.4%; Crystal form [4, 10]: form B; Purity (HPLC) [4, 10]: 99.4%; Crystal form [4, 11]: form B; Purity (HPLC) [4, 11]: 99.4%; Crystal form [4, 12]: form B; Purity (HPLC) [4, 12]: 99.4%; Crystal form [4, 7]: form B; chemical stability ([4]; conclusion in words, all stability conditions): good chemical stability
